In ChEMBL document CHEMBL4382273, “Antiprotozoal Isoprenoids from Salvia hydrangea” (J Nat Prod, 2018):

Legend:
[1] = test system: Trypanosoma brucei rhodesiense; experiment: Antiprotozoal activity against trypomastigote stage of Trypanosoma brucei rhodesiense STIB900 after 72 hrs by Alamar Blue assay; format: functional, organism-based; details: STIB900, 72 h
[2] = Selectivity index, ratio of IC50 for rat L6 cells to IC50 for Trypanosoma cruzi Tulahuen C4 amastigotes harboring LacZ infected in rat L6 cells; format: toxicity, cell-based; details: read-out: Ratio IC50
L6 = experiment: Cytotoxicity against rat L6 cells after 72 hrs by alamar blue assay; format: cell-based; details: L6, 72 h
Leishmania donovani = experiment: Antileishmanial activity against Leishmania donovani MHOM/ET/67/L82 axenic amastigotes after 72 hrs by alamar blue staining based fluorescence assay; format: functional, organism-based; details: MHOM/ET/67/L82, 72 h
Trypanosoma cruzi = experiment: Antitrypanosomal activity against Trypanosoma cruzi Tulahuen C4 amastigotes harboring LacZ infected in rat L6 cells after 96 hrs by CPRG/Nonidet reagent based photometric analysis; format: functional, organism-based; details: Tulahuen C4, L6, 96 h
[3] = Selectivity index, ratio of IC50 for rat L6 cells to IC50 for Leishmania donovani MHOM/ET/67/L82 axenic amastigotes; format: toxicity; details: read-out: Ratio IC50
[4] = Selectivity index, ratio of IC50 for rat L6 cells to IC50 for IEF stage of Plasmodium falciparum NF54; format: toxicity; details: read-out: Ratio IC50
[5] = Selectivity index, ratio of IC50 for rat L6 cells to IC50 for trypomastigote stage of Trypanosoma brucei rhodesiense STIB900; format: toxicity; details: read-out: Ratio IC50
Plasmodium falciparum = experiment: microbe, parasite or virus in culture; details: NF54
Description: Antiplasmodial activity against IEF stage of Plasmodium falciparum NF54 assessed as reduction in [3H]hypoxanthine incorporation preincubated for 48 hrs followed by [3H]hypoxanthine addition measured after 24 hrs by liquid scintillation counting method

Row | SMILES | IC50 [1] | selectivity ratio [2] | IC50 (L6) | IC50 (Leishmania donovani) | IC50 (Trypanosoma cruzi) | selectivity ratio [3] | selectivity ratio [4] | selectivity ratio [5] | IC50 (Plasmodium falciparum)
1 | Nc1nc(N)nc(Nc2ccc([As]3SCC(CO)S3)cc2)n1 (configuration not stated) [MELARSOPROL] | 0.04 µM | – | – | – | – | – | – | – | –
2 | CC1=C2C[C@@H]3C(C)(C)O[C@]45O[C@@]4(C(C)C)C(=O)[C@]4(CC[C@H]6C(C)(C)CCC[C@]67C[C@]24[C@]35O7)CC1=O | 30.5 µM | 6.3 | 72.2 µM | 12.3 µM | 11.5 µM | 5.9 | 56.9 | 2.4 | 1.3 µM
3 | CC1=C2[C@H](O)[C@@H]3C(C)(C)OC4=C(C(C)C)C(=O)[C@]5(CC[C@H]6C(C)(C)CCC[C@]67C[C@]25[C@@]43O7)CC1=O | 45.3 µM | 3.6 | 13.6 µM | 7.5 µM | 3.8 µM | 1.8 | 1.8 | 0.3 | 7.5 µM
4 | CC(C)=C[C@H]1[C@@H]2C(C)=CC[C@]34CC[C@H]5C(C)(C)CCC[C@]56C[C@]23[C@@](O)(O6)C(=O)[C@]1(C(C)C)C4=O | 66.9 µM | 1.3 | 47.2 µM | 21.3 µM | 35.8 µM | 2.2 | 44.2 | 0.7 | 1.1 µM
5 | CC(C)C1=C2OC(C)(C)[C@H]3C[C@@]45O[C@]4(C)[C@H](O)C[C@@]4(CC[C@H]6C(C)(C)CCC[C@]67C[C@@]45[C@@]23O7)C1=O | 74.6 µM | 2.4 | 46.9 µM | 44.1 µM | 19.8 µM | 1.1 | 12.9 | 0.6 | 3.6 µM
6 | C=CC1=C[C@@H]2[C@H]3C(C)=CO[C@]45O[C@]67CCCC(C)(C)[C@@H]6CC[C@](C1)(C(=O)[C@]3(C(C)C)C4=O)[C@]25C7 | 24.6 µM | 0.9 | 41.6 µM | 15.6 µM | 47.9 µM | 2.7 | 22 | 1.7 | 1.9 µM
7 | O=C(Cn1ccnc1[N+](=O)[O-])NCc1ccccc1 [BENZNIDAZOLE] | – | – | – | – | 5.1 µM | – | – | – | –
8 | CCCCCCCCCCCCCCCCOP(=O)([O-])OCC[N+](C)(C)C [MILTEFOSINE] | – | – | – | 0.9 µM | – | – | – | – | –
9 | CC(=O)[C@@]12C[C@H]3C(C)(C)OC4=C(C(C)C)C(=O)[C@]5(CC[C@H]6C(C)(C)CCC[C@]67C[C@@]51[C@@]43O7)C[C@H]2O | 85.8 µM | 1.2 | 41.1 µM | 12.3 µM | 33.9 µM | 3.3 | 5.2 | 0.5 | 7.9 µM
10 | CC1=C2C[C@@H]3C(C)(C)OC4=C(C(C)C)C(=O)[C@]5(CC[C@H]6C(C)(C)CCC[C@]67C[C@]25[C@@]43O7)CC1=O | 56 µM | 10.7 | 37.2 µM | 15.5 µM | 3.5 µM | 2.4 | 62.2 | 0.7 | 0.6 µM
11 | C[C@@H]1CC[C@H]2[C@@H](C)C(=O)O[C@@H]3O[C@@]4(C)CC[C@@H]1[C@]32OO4 [ARTEMISININ] | – | – | – | – | – | – | – | – | 0.008 µM
